Experimental data reported in patent US20120172344A1, “INSULIN-PRODUCING CELL INDUCER, GLUCOSE INTAKE ENHANCER, AND THERAPEUTIC AGENT FOR DIABETES OR DIABETES COMPLICATIONS” (KYUSHU UNIVERSITY, NATIONAL UNIVERSITY CORPORATION, priority 2009, published 2012).

Key:
[1] = test system: Tg23 mice (ICERIγ transgenic diabetes model mice); test: Experimental Example 1: effect of estradiol administration on blood glucose and insulin-producing cells in diabetes model mice; assay type: in vivo, mouse
Method: Blood glucose levels were measured by an enzyme-electrode method with ONE TOUCH UltraVue (Johnson & Johnson K.K.) on whole blood taken from tail veins of subject animals.
(§1) Pancreases were fixed in 10% formalin, embedded in paraffin, and sliced into sections having a thickness of 2 μm. The sections were immunostained with overnight incubation at 4° C. in dilution solutions containing various primary antibodies described below.
(§2) Primary antibodies: Anti-insulin antibody (dilution rate 1:500; DAKO), anti-glucagon antibody (dilution rate 1:500; Linco Research Inc.), anti-DBA antibody (dilution rate 1:300; Vector Laboratories), anti-Pdx-1 antibody (dilution rate 1:1000; kindly provided by Chris V. E. Wright, Vanderbilt University), anti-collagen type IV antibody (dilution rate 1:250; PROGEN Biotechnik), and anti-Glut 4 antibody (dilution rate 1:1000; Chemicon).
(§3) The primary antibodies were detected by immunofluorescence labeling using secondary antibodies conjugated with Alexa 488 or Alexa 568 (1:200; Molecular Probes); third antibody conjugated with biotin-labeled secondary antibodies and streptavidin Alexa 488 or Alexa 568 (1:800; Vector Laboratories); or by an immunoperoxidase staining method using biotin-labeled secondary antibodies. Staining was visualized with diaminobenzidine. The sections were counterstained with hematoxylin. Images were captured on a BZ9000 microscope (Keyence), or in the confocal mode on an LSM 510 META confocal microscope (Carl Zeiss). Immunofluorescence intensity was measured in random fields (n=30/section) using LSM Zeiss software, and the result was expressed as average pixel intensity.
ICERIγ transgenic mice (male) were generated from a pure line C57BL/6J (Japan SLC, Inc.) in accordance with the method described in Example 1 of Patent Literature 1 (WO2004/072282). […]
Tg23 mice (11 weeks of age) were divided into two groups: an estradiol administration group (n=24), and a control group (n=57). […] Then, body weight and blood glucose levels of the Tg mice and wild-type mice (WT) (n=81) were monitored every week, and the mice were dissected after 43 weeks. […]

Tg23 mice = test: Experimental Example 5: β-cell neogenesis and electron microscopy of pancreas; assay type: in vivo, mouse
Method: as §1, §2
as §3, with “The sections were counterstained with hematoxylin. Images were captured on a BZ9000 microscope (Keyence), or in the confocal mode on an LSM 510 META confocal microscope (Carl Zeiss).” left out
All pancreatic islets, glucagon positive cells, and insulin-positive cells existing on a single pancreas section were photographed on a Keyence Biorevo microscope, and five to seven sections corresponding to areas that are at least 150 μm apart from one another were evaluated for a single pancreas (a single group includes five to eight males and six to nine females). Areas of β-cells and pancreatic islets were measured for each of the sections using Image Joint and Dynamic Cell Count software (Keyence). […]
Experimental Example 5: Effect of estradiol administration (III) Tg23 mice (23-24 weeks of age) were divided into two groups (each group: n=4 to 10): an estradiol administration group and a control group. […] Then, blood glucose levels of these mice were monitored every week. […]

C[C@]12CC[C@@H]3c4ccc(O)cc4CC[C@H]3[C@@H]1CC[C@@H]2O [estradiol, 17β-estradiol]
blood glucose levels ([1]; Tg23 mice 11 weeks of age, testectomy (Tx) + single 17β-estradiol pellet s.c. (0.72 mg/pellet, 90-day release), vs wild-type mice): lowered to the same levels of normal mice
persistence of lowered blood glucose levels ([1]; Tx+E group, Tg23 mice): maintained until death
insulin-producing cells in pancreatic duct epithelium cells of the pancreas ([1]; Tx+E group, anti-insulin immunostaining, 1 week after estradiol administration): induced
neogenesis of β-cells (insulin-producing cells and Pdx-1 in pancreatic duct epithelial cells) (Tg23 mice; Tg23 mice 23-24 weeks of age, Tx+E group vs Tg group): enhanced
mature β-cells (Tg23 mice; Treatment group, 48 weeks of age, electron microscope): formed
insulin secretory granules in pancreatic tissue (electron microscope) (Tg23 mice; Tx+E group (Treatment), 48 weeks of age): observed
